Experimental data taken from patent US20260000710A1, “Novel Treatments for Cardiovascular Related Disease” (priority 2022, published 2026).

System: AIM+ and AIM− CD4+ T cells from peptide-expanded PBMCs
Assay: TCRβ CDR3 sequencing (immunoSEQ) of sorted AIM+ and AIM− CD4+ T cells;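 also: genomic DNA from sorted cells as template, amplification bias-controlled two-step multiplex PCR, APOB6 pool at 10 µg/ml per peptide, CD40 blocking antibody added before restimulation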
Assay type: cell-based, human
Conditions: for Log10 Odds Ratio: AIM+ vs AIM−; for No. of clone-specific productive templates, AIM+ CD4+ T (Total 21697) / No. of clone-specific productive templates, AIM− CD4+ T (Total 49956) / No. of clone-specific productive templates, AIM+ CD4+ T (Total 18591) / No. of clone-specific productive templates, AIM− CD4+ T (Total 7206) / No. of clone-specific productive templates, AIM+ CD4+ T (Total 31354) / No. of clone-specific productive templates, AIM− CD4+ T (Total 48987) / No. of clone-specific productive templates, AIM+ CD4+ T (Total 25796) / No. of clone-specific productive templates, AIM− CD4+ T (Total 25928) / No. of clone-specific productive templates, AIM+ CD4+ T (Total 34927) / No. of clone-specific productive templates, AIM− CD4+ T (Total 45364) / No. of clone-specific productive templates, AIM+ CD4+ T (Total 16700) / No. of clone-specific productive templates, AIM− CD4+ T (Total 21770): PBMCs expanded 14 days and restimulated 24 h with APOB6
Protocol: To examine the clonotypic identities of autoreactive CD4^+ T cells, the hypervariable TCRβ DR3 region was sequenced using a DNA-based sequencing technique^42 (Adaptive Biotechnologies), which have been used to profile clonal populations of other self-antigen specific T cells^43. PBMCs from six HLA-typed donors (demographics and HLA-II alleles in Tables 5, 6) were expanded (14-days) and restimulated (24 h) with the APOB6 pool. To isolate viable responder and non-responder CD4^+ T cells from the same pool of stimulated PBMCs (schematic in FIG. 15A, gating strategy in FIG. 151B), the inventors used the AIM assay protocol (FIGS. 2A to 2D).
As a second control, unexpanded PBMCs (day 0 samples), sorted into naïve, central memory (TCM) and effector memory (TEM) CD4^+ T cells, were used (gating strategy in FIG. 15C). This allowed tracing the APOB6-specific AIM^+ T cell clones in naïve and memory T cell lineages. Genomic DNA, isolated from sorted AIM^− and AIM^+ Day 14 samples and naïve, TCM and TEM Day 0 samples from six donors, was used as the starting material for TCRVβ sequencing (schematic in FIG. 15A) using an optimized two-step, amplification bias-controlled multiplex-PCR-based approach^42,44 (immunoSEQ Human TCRB Assay, Adaptive Biotechnologies).
For isolation of APOB epitope-specific CD4^+ T cells, PBMCs were expanded with the APOB6pool (10 μg/ml per peptide). On Day 14, cultured cells were washed and re-stimulated with APOB6 (10 μg/ml) for 24 h (AIM assay protocol). 1 μg/ml of CD40 blocking antibody was added 15 min before stimulation. At the end of the stimulation period, cells were washed with FACS buffer (PBS w/o Ca/Mg, 2% FCS). Day 14 (APOB6 expanded and restimulated) and Day 0 (ex vivo samples with no in vitro stimulation) PBMC samples from six donors were resuspended in a staining master mix containing anti-human Fc-Block (Biolegend), fixable viability dye and antibodies against T cell and non-T cell (Dump) surface markers, activation markers and memory markers (antibody details in Table 4). Viability dye was used at 1:1000 dilution, antibodies were used at a final dilution of 1:100 (activation markers) and 1:200 (other extracellular markers). […] Gates were set based on unstimulated and PHA-L stimulated negative and positive controls, respectively. Antigen-specific AIM^+ and non-specific control AIM^− CD4^+ T cells from Day 14 samples and naïve (CD45RA^+CCR7^+), central memory (CD45RA^−CCR7^+, TCM) and effector memory (CD45RA^−CCR7^−, TEM) CD4^+ T cells from Day 0 PBMCs were sorted into HEPES-containing buffer (PBS with 2% FBS and 0.025 M HEPES) using BD FACSAria flow cytometry sorters. Acquired data was analyzed with FlowJo software.
Genomic DNA was extracted from sorted cells using QIAamp DNA Micro Kit (QIAGEN) and sent to Adaptive Biotechnologies for survey-level TCRβ sequencing (depth ˜60,000 reads) using their established immunoSEQ platform^7. Briefly, highly variable CDR3 regions on somatically rearranged human TCRβ chains were amplified with a two-step multiplex PCR approach using optimized set of primers that target the VDJ region spanning each unique CDR3B. A synthetic repertoire containing all possible V/J templates is used as a built-in control to quantify and correct PCR amplification biases. Processing of raw Illumina sequence reads, filtering, demultiplexing, clustering and mapping of CDR3 sequences and annotation of VDJ genes using IMGT database sequences were performed at Adaptive Biotechnologies and made available for download and analysis.

## CASSTTGLAAYNEQFF: TCRβ CDR3 clone, TCRBV19-01+TCRBJ02-01, Donor 1
Donor 1
  Log10 Odds Ratio: 1.97
  No. of clone-specific productive templates, AIM+ CD4+ T (Total 21697): 519
  No. of clone-specific productive templates, AIM− CD4+ T (Total 49956): 13

## CASSWDRTKFGNQPQHF: TCRβ CDR3 clone, TCRBV19-01+TCRBJ01-05, Donor 2
Donor 2
  Log10 Odds Ratio: 2.02
  No. of clone-specific productive templates, AIM+ CD4+ T (Total 18591): 268
  No. of clone-specific productive templates, AIM− CD4+ T (Total 7206): 1

## CASSYGGGPPDTQYF: TCRβ CDR3 clone, TCRBV06-06+TCRBJ02-03, Donor 5
Donor 5
  Log10 Odds Ratio: 2.34
  No. of clone-specific productive templates, AIM+ CD4+ T (Total 31354): 810
  No. of clone-specific productive templates, AIM− CD4+ T (Total 48987): 6

## CASSYRQTNQPQHF: TCRβ CDR3 clone, TCRBV06-02/06-03+TCRBJ01-05, Donor 4
Donor 4
  Log10 Odds Ratio: 12.14
  No. of clone-specific productive templates, AIM+ CD4+ T (Total 25796): 509
  No. of clone-specific productive templates, AIM− CD4+ T (Total 25928): 0

## CASSYSSGGGNEQFF: TCRβ CDR3 clone, TCRBV06-05+TCRBJ02-01, Donor 1
Donor 1
  Log10 Odds Ratio: 2.61
  No. of clone-specific productive templates, AIM+ CD4+ T (Total 21697): 348
  No. of clone-specific productive templates, AIM− CD4+ T (Total 49956): 2

## CASTATESSPLHF: TCRβ CDR3 clone, TCRBV12-03/12-04+TCRBJ01-06, Donor 5
Donor 5
  Log10 Odds Ratio: 11.80
  No. of clone-specific productive templates, AIM+ CD4+ T (Total 31354): 415
  No. of clone-specific productive templates, AIM− CD4+ T (Total 48987): 0

## CATALAGGHEQYF: TCRβ CDR3 clone, TCRBV06-05+TCRBJ02-07, Donor 5
Donor 5
  Log10 Odds Ratio: 2.60
  No. of clone-specific productive templates, AIM+ CD4+ T (Total 31354): 753
  No. of clone-specific productive templates, AIM− CD4+ T (Total 48987): 3

## CATSDFGKEGDEKLFF: TCRβ CDR3 clone, TCRBV24-01+TCRBJ01-04, Donor 5
Donor 5
  Log10 Odds Ratio: 2.61
  No. of clone-specific productive templates, AIM+ CD4+ T (Total 31354): 518
  No. of clone-specific productive templates, AIM− CD4+ T (Total 48987): 2

## CATSEGGRGRGPGELFF: TCRβ CDR3 clone, TCRBV24-01+TCRBJ02-02, Donor 6
Donor 6
  Log10 Odds Ratio: 2.58
  No. of clone-specific productive templates, AIM+ CD4+ T (Total 34927): 292
  No. of clone-specific productive templates, AIM− CD4+ T (Total 45364): 1

## CATSEPGPLNQPQHF: TCRβ CDR3 clone, TCRBV24-01+TCRBJ01-05, Donor 3
Donor 3
  Log10 Odds Ratio: 1.62
  No. of clone-specific productive templates, AIM+ CD4+ T (Total 16700): 348
  No. of clone-specific productive templates, AIM− CD4+ T (Total 21770): 11

## CATSQGVGSGANVLTF: TCRβ CDR3 clone, TCRBV15-01+TCRBJ02-06, Donor 6
Donor 6
  Log10 Odds Ratio: 2.24
  No. of clone-specific productive templates, AIM+ CD4+ T (Total 34927): 649
  No. of clone-specific productive templates, AIM− CD4+ T (Total 45364): 5

## CAWSVGGPGANSPLHF: TCRβ CDR3 clone, TCRBV30-01+TCRBJ01-06, Donor 2
Donor 2
  Log10 Odds Ratio: 1.16
  No. of clone-specific productive templates, AIM+ CD4+ T (Total 18591): 369
  No. of clone-specific productive templates, AIM− CD4+ T (Total 7206): 10

## CSAMSPSGTGELFF: TCRβ CDR3 clone, TCRBV20-X+TCRBJ02-02, Donor 2
Donor 2
  Log10 Odds Ratio: 12.19
  No. of clone-specific productive templates, AIM+ CD4+ T (Total 18591): 549
  No. of clone-specific productive templates, AIM− CD4+ T (Total 7206): 0

## CSARADGQGYGYTF: TCRβ CDR3 clone, TCRBV20-X+TCRBJ01-02, Donor 3
Donor 3
  Log10 Odds Ratio: 1.73
  No. of clone-specific productive templates, AIM+ CD4+ T (Total 16700): 996
  No. of clone-specific productive templates, AIM− CD4+ T (Total 21770): 26

## CSAREGALDNSPLHF: TCRβ CDR3 clone, TCRBV20-X+TCRBJ01-06, Donor 5
Donor 5
  Log10 Odds Ratio: 2.33
  No. of clone-specific productive templates, AIM+ CD4+ T (Total 31354): 537
  No. of clone-specific productive templates, AIM− CD4+ T (Total 48987): 4

## CSAREPHDTSTDTQYF: TCRβ CDR3 clone, TCRBV20-X+TCRBJ02-03, Donor 2
Donor 2
  Log10 Odds Ratio: 11.98
  No. of clone-specific productive templates, AIM+ CD4+ T (Total 18591): 338
  No. of clone-specific productive templates, AIM− CD4+ T (Total 7206): 0

## CSARVTGGGAHTGELFF: TCRβ CDR3 clone, TCRBV20-X+TCRBJ02-02, Donor 1
Donor 1
  Log10 Odds Ratio: 2.69
  No. of clone-specific productive templates, AIM+ CD4+ T (Total 21697): 422
  No. of clone-specific productive templates, AIM− CD4+ T (Total 49956): 2

## CSARWYNEQFF: TCRβ CDR3 clone, TCRBV20-01+TCRBJ02-01, Donor 3
Donor 3
  Log10 Odds Ratio: 1.82
  No. of clone-specific productive templates, AIM+ CD4+ T (Total 16700): 349
  No. of clone-specific productive templates, AIM− CD4+ T (Total 21770): 7

## CSASRTYDNQPQHF: TCRβ CDR3 clone, TCRBV20-01+TCRBJ01-05, Donor 2
Donor 2
  Log10 Odds Ratio: 11.96
  No. of clone-specific productive templates, AIM+ CD4+ T (Total 18591): 326
  No. of clone-specific productive templates, AIM− CD4+ T (Total 7206): 0

## CSATGGTNEKLFF: TCRβ CDR3 clone, TCRBV20-X+TCRBJ01-04, Donor 6
Donor 6
  Log10 Odds Ratio: 1.59
  No. of clone-specific productive templates, AIM+ CD4+ T (Total 34927): 500
  No. of clone-specific productive templates, AIM− CD4+ T (Total 45364): 17

## CSVLQHEQYF: TCRβ CDR3 clone, TCRBV29-01+TCRBJ02-07, Donor 4
Donor 4
  Log10 Odds Ratio: 0.49
  No. of clone-specific productive templates, AIM+ CD4+ T (Total 25796): 466
  No. of clone-specific productive templates, AIM− CD4+ T (Total 25928): 153
